# Experimental data as given in ChEMBL document CHEMBL1641578, “Design and synthesis of 3-(azol-1-yl)phenylpropanes as microbicidal spermicides for prophylactic contraception” (Bioorg Med Chem Lett, 2011).
# Tested on: Candida parapsilosis
# Experiment: Antifungal activity against Candida parapsilosis after 48 hrs by broth microdilution assay
# Type: functional
# Details: Lodderomyces parapsilosis
row,MIC [µg/mL],SMILES
1,> 50,Cc1ncc([N+](=O)[O-])n1CCC(=O)c1ccccc1
2,> 50,OC(CCn1cncn1)c1ccccc1 (stereo not drawn)
3,50,O=C(CCn1cnc2ccccc21)c1ccccc1
4,> 50,FC(F)(F)c1ccc(OC(CCn2cncn2)c2ccccc2)cc1 (stereo not drawn)
5,> 50,Cc1ncc([N+](=O)[O-])n1C/C=C/c1ccccc1
6,> 50,FC(F)(F)c1ccc(OC(CCn2cnc3ccccc32)c2ccccc2)cc1 (stereo not drawn)
7,50,C(=C\c1ccccc1)/Cn1ccnc1
8,> 50,FC(F)(F)c1ccc(OC(CCn2nnc3ccccc32)c2ccccc2)cc1 (stereo not drawn)
9,50,Cc1nccn1CCC(Oc1ccc(C(F)(F)F)cc1)c1ccccc1 (stereo not drawn)
10,> 50,Cc1nccn1CCC(O)c1ccccc1 (stereo not drawn)
11,> 50,O=C(CCn1ccnc1)c1ccccc1
12,50,FC(F)(F)c1ccc(OC(CCn2ccnc2)c2ccccc2)cc1 (stereo not drawn)
13,> 50,Cc1nccn1CCC(=O)c1ccccc1

# Tested on: Candida albicans
# Experiment: Antifungal activity against Candida albicans MTCC-183 after 48 hrs by broth microdilution assay
# Type: functional
# Details: MTCC-183, 48 h
row,MIC [µg/mL],SMILES
1,> 50,Cc1ncc([N+](=O)[O-])n1CCC(=O)c1ccccc1
2,> 50,OC(CCn1cncn1)c1ccccc1 (stereo not drawn)
3,> 50,O=C(CCn1cnc2ccccc21)c1ccccc1
4,50,FC(F)(F)c1ccc(OC(CCn2cncn2)c2ccccc2)cc1 (stereo not drawn)
5,> 50,Cc1ncc([N+](=O)[O-])n1C/C=C/c1ccccc1
6,> 50,FC(F)(F)c1ccc(OC(CCn2cnc3ccccc32)c2ccccc2)cc1 (stereo not drawn)
7,> 50,C(=C\c1ccccc1)/Cn1ccnc1
8,> 50,FC(F)(F)c1ccc(OC(CCn2nnc3ccccc32)c2ccccc2)cc1 (stereo not drawn)
9,25,Cc1nccn1CCC(Oc1ccc(C(F)(F)F)cc1)c1ccccc1 (stereo not drawn)
10,> 50,Cc1nccn1CCC(O)c1ccccc1 (stereo not drawn)
11,> 50,O=C(CCn1ccnc1)c1ccccc1
12,50,FC(F)(F)c1ccc(OC(CCn2ccnc2)c2ccccc2)cc1 (stereo not drawn)
13,> 50,Cc1nccn1CCC(=O)c1ccccc1

# Tested on: Candida albicans
# Experiment: Antifungal activity against Candida albicans NCIM-3557 after 48 hrs by broth microdilution assay
# Type: functional
# Details: NCIM-3557, 48 h
row,MIC [µg/mL],SMILES
1,> 50,Cc1ncc([N+](=O)[O-])n1CCC(=O)c1ccccc1
2,> 50,OC(CCn1cncn1)c1ccccc1 (stereo not drawn)
3,50,O=C(CCn1cnc2ccccc21)c1ccccc1
4,> 50,FC(F)(F)c1ccc(OC(CCn2cncn2)c2ccccc2)cc1 (stereo not drawn)
5,> 50,Cc1ncc([N+](=O)[O-])n1C/C=C/c1ccccc1
6,> 50,FC(F)(F)c1ccc(OC(CCn2cnc3ccccc32)c2ccccc2)cc1 (stereo not drawn)
7,> 50,C(=C\c1ccccc1)/Cn1ccnc1
8,> 50,FC(F)(F)c1ccc(OC(CCn2nnc3ccccc32)c2ccccc2)cc1 (stereo not drawn)
9,50,Cc1nccn1CCC(Oc1ccc(C(F)(F)F)cc1)c1ccccc1 (stereo not drawn)
10,> 50,Cc1nccn1CCC(O)c1ccccc1 (stereo not drawn)
11,> 50,O=C(CCn1ccnc1)c1ccccc1
12,50,FC(F)(F)c1ccc(OC(CCn2ccnc2)c2ccccc2)cc1 (stereo not drawn)
13,> 50,Cc1nccn1CCC(=O)c1ccccc1

# Tested on: Spermatozoa
# Experiment: Spermicidal activity against human spermatozoa assessed as immobilization measured for 60 seconds by visual scoring
# Type: functional
# Design: concentration or dose not given beside the values
# Details: not given
row,SMILES,Activity [%]
1,Cc1ncc([N+](=O)[O-])n1CCC(=O)c1ccccc1,90
2,OC(CCn1cncn1)c1ccccc1 (stereo not drawn),70
3,O=C(CCn1cnc2ccccc21)c1ccccc1,100
4,FC(F)(F)c1ccc(OC(CCn2cncn2)c2ccccc2)cc1 (stereo not drawn),100
5,Cc1ncc([N+](=O)[O-])n1C/C=C/c1ccccc1,90
6,FC(F)(F)c1ccc(OC(CCn2cnc3ccccc32)c2ccccc2)cc1 (stereo not drawn),50
7,C(=C\c1ccccc1)/Cn1ccnc1,100
8,FC(F)(F)c1ccc(OC(CCn2nnc3ccccc32)c2ccccc2)cc1 (stereo not drawn),70
9,Cc1nccn1CCC(Oc1ccc(C(F)(F)F)cc1)c1ccccc1 (stereo not drawn),100
10,Cc1nccn1CCC(O)c1ccccc1 (stereo not drawn),100
11,O=C(CCn1ccnc1)c1ccccc1,100
12,FC(F)(F)c1ccc(OC(CCn2ccnc2)c2ccccc2)cc1 (stereo not drawn),100
13,Cc1nccn1CCC(=O)c1ccccc1,100

# Tested on: Candida albicans
# Experiment: Antifungal activity against Candida albicans isolate CDRI after 48 hrs by broth microdilution assay
# Type: functional
# Details: not given
row,MIC [µg/mL],SMILES
1,50,Cc1ncc([N+](=O)[O-])n1CCC(=O)c1ccccc1
2,> 50,OC(CCn1cncn1)c1ccccc1 (stereo not drawn)
3,25,O=C(CCn1cnc2ccccc21)c1ccccc1
4,> 50,FC(F)(F)c1ccc(OC(CCn2cncn2)c2ccccc2)cc1 (stereo not drawn)
5,> 50,Cc1ncc([N+](=O)[O-])n1C/C=C/c1ccccc1
6,> 50,FC(F)(F)c1ccc(OC(CCn2cnc3ccccc32)c2ccccc2)cc1 (stereo not drawn)
7,25,C(=C\c1ccccc1)/Cn1ccnc1
8,> 50,FC(F)(F)c1ccc(OC(CCn2nnc3ccccc32)c2ccccc2)cc1 (stereo not drawn)
9,50,Cc1nccn1CCC(Oc1ccc(C(F)(F)F)cc1)c1ccccc1 (stereo not drawn)
10,> 50,Cc1nccn1CCC(O)c1ccccc1 (stereo not drawn)
11,50,O=C(CCn1ccnc1)c1ccccc1
12,50,FC(F)(F)c1ccc(OC(CCn2ccnc2)c2ccccc2)cc1 (stereo not drawn)
13,50,Cc1nccn1CCC(=O)c1ccccc1

# Tested on: HeLa
# Experiment: Cytotoxicity against human HeLa cells at 200 ug/ml after 24 hrs by MTT based colorimetric assay
# Type: cell-based
# Details: not given
row,SMILES,Activity
1,Cc1ncc([N+](=O)[O-])n1CCC(=O)c1ccccc1,Non-toxic
2,OC(CCn1cncn1)c1ccccc1 (stereo not drawn),Non-toxic
3,O=C(CCn1cnc2ccccc21)c1ccccc1,Non-toxic
4,FC(F)(F)c1ccc(OC(CCn2cncn2)c2ccccc2)cc1 (stereo not drawn),Toxic
5,Cc1ncc([N+](=O)[O-])n1C/C=C/c1ccccc1,Non-toxic
6,FC(F)(F)c1ccc(OC(CCn2cnc3ccccc32)c2ccccc2)cc1 (stereo not drawn),Toxic
7,C(=C\c1ccccc1)/Cn1ccnc1,Non-toxic
8,FC(F)(F)c1ccc(OC(CCn2nnc3ccccc32)c2ccccc2)cc1 (stereo not drawn),Non-toxic
9,Cc1nccn1CCC(Oc1ccc(C(F)(F)F)cc1)c1ccccc1 (stereo not drawn),Toxic
10,Cc1nccn1CCC(O)c1ccccc1 (stereo not drawn),Non-toxic
11,O=C(CCn1ccnc1)c1ccccc1,Non-toxic
12,FC(F)(F)c1ccc(OC(CCn2ccnc2)c2ccccc2)cc1 (stereo not drawn),Toxic
13,Cc1nccn1CCC(=O)c1ccccc1,Toxic

# Tested on: Trichomonas vaginalis
# Experiment: Antitrichomonas activity against Trichomonas vaginalis after 48 hrs by trypan blue exclusion assay
# Type: functional
# Details: not given
row,MIC [µg/mL],SMILES
1,2,Cc1ncc([N+](=O)[O-])n1CCO [METRONIDAZOLE]
2,50,Cc1ncc([N+](=O)[O-])n1CCC(=O)c1ccccc1
3,> 200,OC(CCn1cncn1)c1ccccc1 (stereo not drawn)
4,200,O=C(CCn1cnc2ccccc21)c1ccccc1
5,50,FC(F)(F)c1ccc(OC(CCn2cncn2)c2ccccc2)cc1 (stereo not drawn)
6,25,Cc1ncc([N+](=O)[O-])n1C/C=C/c1ccccc1
7,25,FC(F)(F)c1ccc(OC(CCn2cnc3ccccc32)c2ccccc2)cc1 (stereo not drawn)
8,> 200,C(=C\c1ccccc1)/Cn1ccnc1
9,> 200,FC(F)(F)c1ccc(OC(CCn2nnc3ccccc32)c2ccccc2)cc1 (stereo not drawn)
10,25,Cc1nccn1CCC(Oc1ccc(C(F)(F)F)cc1)c1ccccc1 (stereo not drawn)
11,> 200,Cc1nccn1CCC(O)c1ccccc1 (stereo not drawn)
12,> 200,O=C(CCn1ccnc1)c1ccccc1
13,12.5,FC(F)(F)c1ccc(OC(CCn2ccnc2)c2ccccc2)cc1 (stereo not drawn)
14,> 200,Cc1nccn1CCC(=O)c1ccccc1

# Tested on: not listed separately
# Experiment: Toxicity against Lactobacillus acidophilus at 200 ug/ml after 24 hrs by microplate reader
# Details: not given
row,SMILES,Activity
1,Cc1ncc([N+](=O)[O-])n1CCC(=O)c1ccccc1,Non-toxic
2,OC(CCn1cncn1)c1ccccc1 (stereo not drawn),Non-toxic
3,O=C(CCn1cnc2ccccc21)c1ccccc1,Non-toxic
4,FC(F)(F)c1ccc(OC(CCn2cncn2)c2ccccc2)cc1 (stereo not drawn),Toxic
5,Cc1ncc([N+](=O)[O-])n1C/C=C/c1ccccc1,Non-toxic
6,FC(F)(F)c1ccc(OC(CCn2cnc3ccccc32)c2ccccc2)cc1 (stereo not drawn),Toxic
7,C(=C\c1ccccc1)/Cn1ccnc1,Non-toxic
8,FC(F)(F)c1ccc(OC(CCn2nnc3ccccc32)c2ccccc2)cc1 (stereo not drawn),Non-toxic
9,Cc1nccn1CCC(Oc1ccc(C(F)(F)F)cc1)c1ccccc1 (stereo not drawn),Toxic
10,Cc1nccn1CCC(O)c1ccccc1 (stereo not drawn),Non-toxic
11,O=C(CCn1ccnc1)c1ccccc1,Non-toxic
12,FC(F)(F)c1ccc(OC(CCn2ccnc2)c2ccccc2)cc1 (stereo not drawn),Toxic
13,Cc1nccn1CCC(=O)c1ccccc1,Non-toxic

# Tested on: Candida albicans
# Experiment: Antifungal activity against Candida albicans after 48 hrs by broth microdilution assay
# Type: functional
# Details: not given
row,MIC [µg/mL],SMILES
1,> 50,Cc1ncc([N+](=O)[O-])n1CCC(=O)c1ccccc1
2,> 50,OC(CCn1cncn1)c1ccccc1 (stereo not drawn)
3,25,O=C(CCn1cnc2ccccc21)c1ccccc1
4,50,FC(F)(F)c1ccc(OC(CCn2cncn2)c2ccccc2)cc1 (stereo not drawn)
5,50,Cc1ncc([N+](=O)[O-])n1C/C=C/c1ccccc1
6,> 50,FC(F)(F)c1ccc(OC(CCn2cnc3ccccc32)c2ccccc2)cc1 (stereo not drawn)
7,> 50,C(=C\c1ccccc1)/Cn1ccnc1
8,> 50,FC(F)(F)c1ccc(OC(CCn2nnc3ccccc32)c2ccccc2)cc1 (stereo not drawn)
9,25,Cc1nccn1CCC(Oc1ccc(C(F)(F)F)cc1)c1ccccc1 (stereo not drawn)
10,> 50,Cc1nccn1CCC(O)c1ccccc1 (stereo not drawn)
11,> 50,O=C(CCn1ccnc1)c1ccccc1
12,12.5,FC(F)(F)c1ccc(OC(CCn2ccnc2)c2ccccc2)cc1 (stereo not drawn)
13,> 50,Cc1nccn1CCC(=O)c1ccccc1
